Where “and” joins values, the source holds several entries; their conditions need not be identical. Equal values may be shown once. Read-outs that look alike come from different tables or passages of the source.
Target: SARS-CoV-2 NSP3 Mac1 (Severe acute respiratory syndrome coronavirus 2, UniProt P0DTD1)
Assay type: binding
Conditions: for Refined occupancy: ligand occupancy after refinement (phenix.refine)
[1] = PanDDA event map 1-BDC, crystal soak, Compound_concentration 100 mM, PanDDA run dmso_34 or nohits_35 per dataset
[2] = PanDDA event map, 1 minus background density correction, crystal soaking of Mac1
[3] = crystal soak, Compound_concentration 100 mM, Echo dispense 40 nl, PanDDA run dmso_34 or nohits_35 per dataset
[4] = PanDDA event map, crystal soak, Compound_concentration 100 mM, Echo_dispense_volume 40 nl
[5] = crystal soak, Compound_concentration 100 mM, Echo_dispense_volume 40 nl, PanDDA run (background map) dmso_34, nohits_35 or nohits_62
[6] = ligand modeled, crystal soak, Compound_concentration 100 mM, Echo_dispense_volume 40 nl
[7] = PanDDA 1-BDC (background density correction) of the event, crystal soak 100 mM, PanDDA run dmso_34
[8] = crystal soak, compound concentration 100 mM, PanDDA run dmso_34, series docking_lead-like_1
[9] = PanDDA event map background density correction, crystal soak, compound concentration 100 mM
[10] = ligand modeled in the crystal structure, crystal soak, compound concentration 100 mM
[11] = PanDDA 1-BDC of the event, compound stock 100 mM, Echo dispense volume 80 nl
[12] = crystal soak, compound stock 100 mM, Echo dispense volume 80 nl
[13] = ligand modeled in the crystal structure, crystal soak 100 mM, PanDDA run dmso_34
[14] = ligand modeled from this dataset, compound concentration 100 mM

Row | SMILES | 1-BDC (PanDDA) [2] | Refined occupancy (crystal soaking of Mac1) | 1-BDC [4] | PanDDA hit? [5] | Modeled? [6] | also measured
1 | O=C(Nc1ccc(C(=O)N[C@@H]2c3cccc(O)c3C[C@H]2C(=O)O)cc1)NC1CC1 [Compound E2160] | 0.1 | 20 | – | – | – | 1-BDC [1]: 0.08 and 0.1; PanDDA hit? [3]: TRUE; Modeled? (ligand modeled in this dataset, crystal soak, Compound_concentration 100 mM): TRUE
2 | CCC(=O)Nc1nc(C)c(S(=O)(=O)Nc2cccc(C#N)c2)s1 [Compound Z0611] | 0.33 | 66 | 0.33 | TRUE | TRUE | –
3 | Nc1ncc(S(=O)(=O)N2CC(F)(F)C[C@H]2C(=O)O)cn1 [Compound Z1314] | – | 38 | – | – | – | 1-BDC (PanDDA 1-BDC value of the event, crystal soak, compound concentration 100 mM, per dataset): 0.49; 1-BDC (PanDDA event map, 1-BDC of the hit dataset, crystal soak, compound concentration 100 mM): 0.3; 1-BDC [2]: 0.19; PanDDA hit? (crystal soak, compound concentration 100 mM, per dataset): TRUE
4 | CC(C)c1noc(CCc2nc(-c3ccnc4[nH]ccc34)no2)n1 [Compound Z1347] | – | – | – | – | – | 1-BDC [7]: 0.03; PanDDA hit? [8]: TRUE
5 | Nc1ccc(C(=O)N2CC(c3nnc(S)o3)C2)c(Cl)n1 [Compound Z1366] | – | – | – | – | – | 1-BDC [9]: 0.1
6 | O=C(O)CC1CC(CNC(=O)c2cncc3sccc23)C1 (stereo not shown) [Compound Z1558] | 0.24 | 48 | 0.24 | TRUE | TRUE | Comment (ligand modelled in the crystal structure) (what was observed in density instead of the vendor structure): C4 substituted thiophene
7 | CC(Cc1ccco1)C(=O)N[C@@H](CC(=O)O)c1ccc2c(c1)OCO2 (stereo partly shown) [Compound Z1877] | 0.15 | 30 | – | – | – | 1-BDC [9]: 0.15; Modeled? [10]: TRUE
8 | CC1(C)CN(c2ncnc3[nH]c4ccccc4c23)CC(CC(=O)O)O1 (stereo not shown) [Compound Z2215] | 0.05 | 10 | – | – | – | 1-BDC (PanDDA 1-BDC of the event, compound stock 100 mM, Echo dispense volume 40 nl): 0.05; 1-BDC [1]: 0.04; PanDDA hit? [3]: TRUE; PanDDA hit? (crystal soak, compound stock 100 mM, Echo dispense volume 40 nl): TRUE; Modeled? (ligand modeled in structure, compound stock 100 mM, Echo dispense volume 40 nl): TRUE
9 | Cc1oc(CNc2ncnc3[nH]c4ccccc4c23)cc1C(=O)O [Compound Z3124] | 0.09 | 18 | – | – | – | 1-BDC [9]: 0.09; Modeled? [10]: TRUE
10 | CC(F)(F)c1cncc(C(=O)NC(Cc2cncc(Br)c2)C(=O)O)c1 (stereo not shown) [Compound Z3140] | 0.1 | 20 | – | – | – | 1-BDC [9]: 0.1; Modeled? [10]: TRUE
11 | O=C(NS(=O)(=O)Cc1ccc(Br)c(F)c1)c1cnn2ccccc12 [Compound Z3209] | 0.38 | 76 | 0.38 | TRUE | TRUE | –
12 | O=C(CCCCc1ccc(Br)cc1)NC(CCc1cn[nH]c1)C(=O)O (stereo not shown) [Compound Z3213] | – | – | – | – | – | 1-BDC [9]: 0.11
13 | O=C(O)CC(NC(=O)c1cc(F)cc2[nH]cnc12)c1ccc(Br)cc1 (stereo not shown) [Compound Z3722] | 0.29 | 40 | 0.29 | TRUE | TRUE | –
14 | O=C(O)C(F)(F)F.O=C(O)C1CN(c2ncnc3[nH]c4ccccc4c23)CC12CCC2 (stereo not shown) [Compound Z4706] | 0.14 | 28 | 0.14 | TRUE | TRUE | 1-BDC [11]: 0.21; 1-BDC [1]: 0.17; PanDDA hit? [3]: TRUE; PanDDA hit? [12]: TRUE
15 | O=C1OCCN1C1CCN(c2ncnc3[nH]c4cc(F)ccc4c23)C1 (stereo not shown) [Compound Z5107] | 0.06 | 12 | 0.06 | TRUE | TRUE | 1-BDC [11]: 0.09; 1-BDC [1]: 0.06; PanDDA hit? [3]: TRUE; PanDDA hit? [12]: TRUE
16 | O=C(Cc1ccc(-n2cccn2)cc1)OCC1CCCNC1=O (stereo not shown) [Compound Z5505] | – | 16 | – | – | – | 1-BDC (PanDDA event map background density correction, crystal soak, Compound_concentration 100 mM, PanDDA run dmso_34): 0.08; 1-BDC [2]: 0.08; PanDDA hit? (crystal soak, Compound_concentration 100 mM, Echo dispense 40 nl, PanDDA run dmso_34): TRUE; Modeled? (ligand modeled in crystal structure, crystal soak, Compound_concentration 100 mM, PanDDA run dmso_34): TRUE
17 | O=C(O)Cc1cccc(CNC(=O)c2ncnc3ccsc23)c1 [Compound Z5712] | 0.32 | 64 | 0.32 | TRUE | TRUE | –

Row | SMILES | 1-BDC (PanDDA) [2] | Refined occupancy (crystal soaking of Mac1) | 1-BDC [4] | PanDDA hit? [5] | Modeled? [6] | also measured
18 | Nc1ncnc2c1ncn2CCCc1ccsc1 [Compound Z5972] | – | – | – | – | – | 1-BDC [7]: 0.16; PanDDA hit? [8]: TRUE
19 | CNc1cc(-c2noc(CN3CCCC3=O)n2)ncn1 [Compound Z6028] | – | – | – | – | – | 1-BDC [7]: 0.05; PanDDA hit? [8]: TRUE
20 | O=C(O)CC1CCN(c2ncnc3[nH]c4ccccc4c23)CCC1(F)F (stereo not shown) [Compound Z6423] | – | – | – | – | – | 1-BDC [1]: 0.07; PanDDA hit? [3]: TRUE
21 | O=C(O)Cc1ccc(CNC(=O)c2ccnc3ccsc23)cc1 [Compound Z6625] | 0.12 | 24 | 0.12 | TRUE | TRUE | –
22 | COc1cncc(C(=O)NCCNC(=O)c2ncccc2O)c1 [Compound Z6634] | 0.14 | 28 | 0.14 | TRUE | TRUE | –
23 | O=C(NC1C=CC(C(=O)O)C1)c1ncnc2sccc12 (stereo not shown) [Compound Z6645] | 0.4 | 80 | – | – | – | 1-BDC [9]: 0.4; Modeled? [10]: TRUE
24 | CC(=O)Nc1nc(C)c(S(=O)(=O)Nc2ccc(C)c(C#N)c2)s1 [Compound Z6707] | 0.23 | 46 | 0.23 | TRUE | TRUE | –
25 | Cc1oc(C(N)=O)cc1S(=O)(=O)Nc1ccc(Br)c(C#N)c1 [Compound Z6708] | 0.26 | 52 | – | – | – | 1-BDC [9]: 0.26; Modeled? [10]: TRUE
26 | Cn1ncc2ncnc(NS(=O)(=O)Cc3ccc(CC#N)cc3)c21 [Compound Z6742] | 0.31 | 62 | – | – | – | 1-BDC [9]: 0.31; Modeled? [10]: TRUE
27 | Cc1oc(C(N)=O)cc1S(=O)(=O)Nc1cnc(Cl)c(C#N)c1 [Compound Z6746] | 0.16 | 32 | – | – | – | 1-BDC [9]: 0.16; Modeled? [10]: TRUE
28 | c1csc(CC2CCN(c3ncnc4[nH]ccc34)C2)n1 (stereo not shown) [Compound Z6891] | – | 60 | – | – | – | 1-BDC [7]: 0.3; 1-BDC [2]: 0.3; PanDDA hit? [8]: TRUE; Modeled? [13]: TRUE
29 | Cc1oc(=O)oc1CSc1ncnc2[nH]cnc12 [Compound Z7450] | – | 25 | – | – | – | 1-BDC [7]: 0.23; 1-BDC [2]: 0.23; PanDDA hit? [8]: TRUE; Modeled? [13]: TRUE
30 | O=C(O)c1ccc(F)c(CNC(=O)c2ccc3[nH]ccc3c2)c1 [Compound Z7647] | 0.09 | 18 | 0.09 | TRUE | TRUE | –
31 | OCc1cn(C2CCCN(c3ncnc4[nH]ccc34)C2)nn1 (stereo not shown) [Compound Z7864] | – | 10 | – | – | – | 1-BDC [7]: 0.05; 1-BDC [2]: 0.05; PanDDA hit? [8]: TRUE; Modeled? [13]: TRUE
32 | O=C(NC1c2cccc(O)c2CC1C(=O)O)c1ccc(Nc2cccnc2)cc1 (stereo not shown) [Compound Z8539_0018] | 0.1 | 20 | – | – | – | Modeled? [14]: TRUE
33 | O=C(Nc1ccc(C(=O)NC2c3cccc(O)c3CC2C(=O)O)cn1)NC1CC1 (stereo not shown) [Compound Z8539_0054] | – | 28 | – | – | – | 1-BDC [2]: 0.14; Modeled? [14]: TRUE

Reference: article PMC9926234, “Iterative computational design and crystallographic screening identifies potent inhibitors targeting the Nsp3 macrodomain of SARS-CoV-2” (Proceedings of the National Academy of Sciences of the …, 2023)
